Test results: ChEMBL document CHEMBL1275501, “Plasmid-mediated quinolone resistance pump QepA2 in an Escherichia coli isolate from France” (2008)
Converted amounts (≈) assume the structure as drawn.

Experiments:
Escherichia coli [1] = assay: Antimicrobial activity against azide-resistant Escherichia coli J53 by disk diffusion method; format: functional
Escherichia coli [2] = assay: Antimicrobial activity against azide-resistant Escherichia coli J53 harboring pCTX-M carrying blaCTX-M-15 and pQep plasmid carrying qepA2 gene by disk diffusion method; format: functional
Escherichia coli [3] = assay: Antimicrobial activity against Escherichia coli TOP10 harboring pQep plasmid carrying qepA2 gene by disk diffusion method; format: functional
Escherichia coli [4] = assay: Antimicrobial activity against azide-resistant Escherichia coli J53 harboring pCTX-M plasmid carrying blaCTX-M-15 gene by disk diffusion method; format: functional
Escherichia coli [5] = assay: Antimicrobial activity against Escherichia coli BicA expressing blaTEM-1, blaCTX-M-15 and qepA2 gene by disk diffusion method
Escherichia coli [6] = assay: Antimicrobial activity against Escherichia coli TOP10 by disk diffusion method; format: functional
Escherichia coli [7] = assay: Antimicrobial activity against azide-resistant Escherichia coli J53 harboring pCTX-M carrying blaCTX-M-15 and pQep plasmid carrying qepA2 gene by disk diffusion method in presence of beta-lactamase inhibitor clavulanic acid; format: functional
Escherichia coli [8] = assay: Antimicrobial activity against Escherichia coli BicA expressing blaTEM-1, blaCTX-M-15 and qepA2 gene by disk diffusion method in presence of beta-lactamase inhibitor clavulanic acid; format: functional
Escherichia coli [9] = assay: Antimicrobial activity against azide-resistant Escherichia coli J53 harboring pCTX-M plasmid carrying blaCTX-M-15 gene by disk diffusion method in presence of beta-lactamase inhibitor clavulanic acid; format: functional
Escherichia coli [10] = assay: Antimicrobial activity against Escherichia coli TOP10 harboring pQep plasmid carrying qepA2 gene by disk diffusion method in presence of beta-lactamase inhibitor clavulanic acid; format: functional
Escherichia coli [11] = assay: Antimicrobial activity against Escherichia coli TOP10 by disk diffusion method in presence of beta-lactamase inhibitor clavulanic acid; format: functional
Escherichia coli [12] = assay: Antimicrobial activity against azide-resistant Escherichia coli J53 by disk diffusion method in presence of beta-lactamase inhibitor clavulanic acid; format: functional

| Structure (SMILES) | MIC (Escherichia coli [1]) | MIC (Escherichia coli [2]) | MIC (Escherichia coli [3]) | MIC (Escherichia coli [4]) | MIC (Escherichia coli [5]) | MIC (Escherichia coli [6]) | MIC (Escherichia coli [7]) | MIC (Escherichia coli [8]) | MIC (Escherichia coli [9]) | MIC (Escherichia coli [10]) | MIC (Escherichia coli [11]) | MIC (Escherichia coli [12]) |
| --- | --- | --- | --- | --- | --- | --- | --- | --- | --- | --- | --- | --- |
| CO/N=C(\C(=O)N[C@@H]1C(=O)N2C(C(=O)[O-])=C(C[N+]3(C)CCCC3)CS[C@H]12)c1csc(N)n1 | 0.01 µg/mL (≈ 0.0208 µM) | 16 µg/mL (≈ 33.3 µM) | 0.12 µg/mL (≈ 0.25 µM) | 16 µg/mL (≈ 33.3 µM) | > 32 µg/mL |  |  |  |  |  |  |  |
| NCC[C@H](O)C(=O)N[C@@H]1C[C@H](N)[C@@H](O[C@H]2O[C@H](CN)[C@@H](O)[C@H](O)[C@H]2O)[C@H](O)[C@H]1O[C@H]1O[C@H](CO)[C@@H](O)[C@H](N)[C@H]1O [AMIKACIN] | 1 µg/mL (≈ 1.71 µM) | 1 µg/mL (≈ 1.71 µM) | 1 µg/mL (≈ 1.71 µM) | 1 µg/mL (≈ 1.71 µM) | 2 µg/mL (≈ 3.42 µM) | 1 µg/mL (≈ 1.71 µM) |  |  |  |  |  |  |
| CC1(C)S[C@@H]2[C@H](NC(=O)[C@H](N)c3ccc(O)cc3)C(=O)N2[C@H]1C(=O)O [AMOXICILLIN] | 4 µg/mL (≈ 10.9 µM) | > 256 µg/mL | > 256 µg/mL | > 256 µg/mL | > 256 µg/mL | 4 µg/mL (≈ 10.9 µM) | 16 µg/mL | 16 µg/mL | 16 µg/mL | 16 µg/mL | 4 µg/mL | 4 µg/mL |
| C[C@H]1[C@H](NC(=O)/C(=N\OC(C)(C)C(=O)O)c2csc(N)n2)C(=O)N1S(=O)(=O)O [AZTREONAM] |  | 16 µg/mL (≈ 36.7 µM) |  | 16 µg/mL (≈ 36.7 µM) | > 32 µg/mL |  |  |  |  |  |  |  |
| CO/N=C(\C(=O)N[C@@H]1C(=O)N2C(C(=O)O)=C(COC(C)=O)CS[C@H]12)c1csc(N)n1 [CEFOTAXIME] | 0.06 µg/mL (≈ 0.132 µM) | > 32 µg/mL | 0.06 µg/mL (≈ 0.132 µM) | > 32 µg/mL | > 32 µg/mL | 0.06 µg/mL (≈ 0.132 µM) |  |  |  |  |  |  |
| CC(C)(O/N=C(\C(=O)N[C@@H]1C(=O)N2C(C(=O)[O-])=C(C[n+]3ccccc3)CS[C@H]12)c1csc(N)n1)C(=O)O [CEFTAZIDIME] | 0.12 µg/mL (≈ 0.22 µM) | 16 µg/mL (≈ 29.3 µM) | 0.12 µg/mL (≈ 0.22 µM) | 16 µg/mL (≈ 29.3 µM) | > 32 µg/mL | 0.06 µg/mL (≈ 0.11 µM) |  |  |  |  |  |  |
| CC(=O)OCC1=C(C(=O)O)N2C(=O)[C@@H](NC(=O)Cc3cccs3)[C@H]2SC1 [CEPHALOTHIN] | 8 µg/mL (≈ 20.2 µM) | > 256 µg/mL | 8 µg/mL (≈ 20.2 µM) | > 256 µg/mL | > 256 µg/mL | 4 µg/mL (≈ 10.1 µM) |  |  |  |  |  |  |
| O=C(N[C@H](CO)[C@H](O)c1ccc([N+](=O)[O-])cc1)C(Cl)Cl [CHLORAMPHENICOL] | 8 µg/mL (≈ 24.8 µM) | > 256 µg/mL | > 256 µg/mL | 8 µg/mL (≈ 24.8 µM) | > 256 µg/mL | 4 µg/mL (≈ 12.4 µM) |  |  |  |  |  |  |
| O=C(O)c1cn(C2CC2)c2cc(N3CCNCC3)c(F)cc2c1=O [CIPROFLOXACIN] |  |  |  |  | > 32 µg/mL |  |  |  |  |  |  |  |
| CCN1CCN(c2cc3c(cc2F)c(=O)c(C(=O)O)cn3C2CC2)CC1 [ENROFLOXACIN] | 0.03 µg/mL (≈ 0.0835 µM) | 0.06 µg/mL (≈ 0.167 µM) | 0.008 µg/mL (≈ 0.0223 µM) | 0.06 µg/mL (≈ 0.167 µM) | > 32 µg/mL | 0.003 µg/mL (≈ 0.00835 µM) |  |  |  |  |  |  |
| COc1c(N2CCNC(C)C2)c(F)cc2c(=O)c(C(=O)O)cn(C3CC3)c12 (stereo not drawn) [GATIFLOXACIN] | 0.01 µg/mL (≈ 0.0266 µM) | 0.12 µg/mL (≈ 0.32 µM) | 0.01 µg/mL (≈ 0.0266 µM) | 0.06 µg/mL (≈ 0.16 µM) | > 32 µg/mL | 0.003 µg/mL (≈ 0.00799 µM) |  |  |  |  |  |  |
| C[C@@H](O)[C@H]1C(=O)N2C(C(=O)O)=C(SCCNC=N)C[C@H]12 [IMIPENEM ANHYDROUS] | 0.06 µg/mL (≈ 0.2 µM) | 0.25 µg/mL (≈ 0.835 µM) |  | 0.25 µg/mL (≈ 0.835 µM) | 0.5 µg/mL (≈ 1.67 µM) |  |  |  |  |  |  |  |
| C[C@H]1COc2c(N3CCN(C)CC3)c(F)cc3c(=O)c(C(=O)O)cn1c23.C[C@H]1COc2c(N3CCN(C)CC3)c(F)cc3c(=O)c(C(=O)O)cn1c23.O [LEVOFLOXACIN] |  |  |  |  | > 32 µg/mL |  |  |  |  |  |  |  |
